Results reported in patent publication US8471005B2 (Cephalon, Inc., priority 2008, dated 2013).
Where two headings read alike, the source gives them in different places.

How the values were obtained:
ALK = target: T1, ALK (Homo sapiens, UniProt Q9UM73); assay: ALK Kinase Assay (ELISA/TRF, PLC-γ substrate); format: biochemical; settings: read-out: ALK Potency
T1 construct: host or cells: baculovirus expression system
Method in brief: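 Time-resolved fluorescence ELISA using Eu-N1 PT66 antibody to detect phosphorylated PLC-γ (coated at 10 μg/mL). Enzyme at 30 ng/ml ALK; 15 min incubation, 37° C.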

JAK2 = target: T2, JAK2 (Homo sapiens, UniProt O60674); assay: Recombinant Human JAK2 Kinase Assay (TRF); format: biochemical; settings: read-out: JAK2 Potency
T2 construct: host or cells: baculovirus expression system
T2 sequence (O60674 whole entry): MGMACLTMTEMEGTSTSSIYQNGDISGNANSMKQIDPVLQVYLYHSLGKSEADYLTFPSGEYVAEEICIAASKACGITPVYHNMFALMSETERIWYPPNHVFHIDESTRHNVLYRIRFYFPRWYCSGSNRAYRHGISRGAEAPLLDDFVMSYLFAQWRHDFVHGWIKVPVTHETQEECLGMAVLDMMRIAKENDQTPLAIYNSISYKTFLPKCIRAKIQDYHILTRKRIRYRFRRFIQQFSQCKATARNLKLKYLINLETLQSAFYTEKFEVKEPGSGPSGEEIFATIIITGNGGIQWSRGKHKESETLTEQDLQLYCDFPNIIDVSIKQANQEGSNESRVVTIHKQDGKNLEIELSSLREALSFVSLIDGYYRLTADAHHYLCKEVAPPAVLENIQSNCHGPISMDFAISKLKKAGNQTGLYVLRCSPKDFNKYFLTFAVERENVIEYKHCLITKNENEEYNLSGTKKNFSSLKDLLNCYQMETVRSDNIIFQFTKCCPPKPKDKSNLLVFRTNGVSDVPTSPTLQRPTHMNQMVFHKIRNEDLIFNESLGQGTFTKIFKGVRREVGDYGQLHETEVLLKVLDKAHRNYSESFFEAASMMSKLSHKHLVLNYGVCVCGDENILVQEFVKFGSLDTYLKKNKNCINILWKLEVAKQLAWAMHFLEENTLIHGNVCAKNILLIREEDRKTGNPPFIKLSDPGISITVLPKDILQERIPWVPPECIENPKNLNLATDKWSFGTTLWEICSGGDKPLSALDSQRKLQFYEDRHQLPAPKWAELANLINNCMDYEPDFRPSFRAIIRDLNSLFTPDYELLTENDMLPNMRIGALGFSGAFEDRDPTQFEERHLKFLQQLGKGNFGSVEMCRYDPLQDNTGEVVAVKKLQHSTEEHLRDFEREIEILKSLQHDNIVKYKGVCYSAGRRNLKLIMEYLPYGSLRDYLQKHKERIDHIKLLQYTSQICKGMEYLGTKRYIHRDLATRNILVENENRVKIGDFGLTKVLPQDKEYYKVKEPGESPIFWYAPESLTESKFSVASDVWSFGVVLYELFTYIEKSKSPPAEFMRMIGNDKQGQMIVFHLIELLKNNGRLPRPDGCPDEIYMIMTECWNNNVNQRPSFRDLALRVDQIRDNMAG
Method in brief: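 Baculovirus-expressed JAK2 (15 ng/ml) phosphorylated a biotinylated 15-mer peptide captured on Neutravidin, in 20 mM HEPES pH 7.2, 0.2 μM ATP, 1 mM MnCl2, 0.1% BSA, 2.5% DMSO final, 20 min at room temperature. Phosphoproduct detected by time-resolved fluorescence with Eu-N1-labelled PY100 antibody.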

[1] = ALK kinase inhibition, 1 μM ATP
[2] = JAK2 kinase inhibition, 0.2 μM ATP

T1 sequence (Q9UM73 19-1620): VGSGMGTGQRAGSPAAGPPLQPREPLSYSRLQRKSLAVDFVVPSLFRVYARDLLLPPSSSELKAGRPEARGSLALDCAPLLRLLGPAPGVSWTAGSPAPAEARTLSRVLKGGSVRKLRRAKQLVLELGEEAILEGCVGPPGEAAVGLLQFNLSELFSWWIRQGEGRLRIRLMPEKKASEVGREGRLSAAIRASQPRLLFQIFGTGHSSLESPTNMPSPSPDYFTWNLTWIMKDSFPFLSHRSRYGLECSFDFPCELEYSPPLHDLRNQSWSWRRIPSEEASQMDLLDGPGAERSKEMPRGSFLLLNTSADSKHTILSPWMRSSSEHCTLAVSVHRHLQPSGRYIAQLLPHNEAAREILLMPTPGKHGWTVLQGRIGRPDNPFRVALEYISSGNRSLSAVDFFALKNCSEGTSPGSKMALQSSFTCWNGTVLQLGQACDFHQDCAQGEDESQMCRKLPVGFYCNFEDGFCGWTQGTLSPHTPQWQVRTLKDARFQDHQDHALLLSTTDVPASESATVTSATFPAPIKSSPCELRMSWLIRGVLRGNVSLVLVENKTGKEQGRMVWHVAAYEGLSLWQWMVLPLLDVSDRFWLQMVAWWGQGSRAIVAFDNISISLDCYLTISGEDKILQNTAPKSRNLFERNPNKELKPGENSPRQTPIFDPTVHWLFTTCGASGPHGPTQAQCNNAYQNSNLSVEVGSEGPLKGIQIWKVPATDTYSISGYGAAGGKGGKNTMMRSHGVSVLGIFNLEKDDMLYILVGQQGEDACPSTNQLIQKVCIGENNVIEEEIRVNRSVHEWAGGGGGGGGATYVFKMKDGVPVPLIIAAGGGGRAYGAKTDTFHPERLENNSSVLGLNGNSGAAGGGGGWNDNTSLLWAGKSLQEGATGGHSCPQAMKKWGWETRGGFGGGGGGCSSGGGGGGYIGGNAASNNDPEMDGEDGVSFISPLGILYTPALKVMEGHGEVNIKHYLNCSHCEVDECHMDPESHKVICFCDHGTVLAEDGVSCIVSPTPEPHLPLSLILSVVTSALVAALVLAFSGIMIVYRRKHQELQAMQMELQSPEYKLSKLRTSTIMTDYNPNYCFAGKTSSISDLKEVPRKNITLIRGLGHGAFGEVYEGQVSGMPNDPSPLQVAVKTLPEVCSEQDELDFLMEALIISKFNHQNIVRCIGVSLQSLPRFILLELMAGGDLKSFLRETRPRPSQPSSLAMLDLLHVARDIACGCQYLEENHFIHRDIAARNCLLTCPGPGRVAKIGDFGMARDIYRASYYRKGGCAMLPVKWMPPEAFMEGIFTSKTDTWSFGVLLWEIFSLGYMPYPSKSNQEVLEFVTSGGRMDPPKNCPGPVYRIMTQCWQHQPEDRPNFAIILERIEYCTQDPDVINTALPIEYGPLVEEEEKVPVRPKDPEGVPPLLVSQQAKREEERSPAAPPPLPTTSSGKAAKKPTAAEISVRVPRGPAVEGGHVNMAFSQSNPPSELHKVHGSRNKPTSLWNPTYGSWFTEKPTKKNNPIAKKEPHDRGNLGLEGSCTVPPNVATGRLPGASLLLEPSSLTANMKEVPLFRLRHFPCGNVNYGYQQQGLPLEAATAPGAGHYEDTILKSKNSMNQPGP

Compound	IC50 (ALK; [1]) [nM]	IC50 (JAK2; [2]) [nM]	IC50 (ALK; ALK Kinase Inhibition) [nM]	IC50 (JAK2; JAK2 Kinase Inhibition) [nM]
NC(=O)CN1CCC(c2ccc(Nc3ncc4ccc(-c5cccc(CO)c5)n4n3)cc2)CC1 [Example 1065, 2-(4-{4-[7-(3-Hydroxymethyl-phenyl)-pyrrolo[2,1-f][1,2,4]triazin-2-ylamino]-phenyl}-piperidin-1-yl)-acetamide]	100 to 1000	< 100	–	–
COc1cc(-c2ccc3cnc(Nc4ccc(C5CCN(CC(N)=O)CC5)cc4)nn23)c(OC)nn1 [Example 580, 2-(4-{4-[7-(3,6-Dimethoxy-pyridazin-4-yl)-pyrrolo[2,1-f][1,2,4]triazin-2-ylamino]-phenyl}-piperidin-1-yl)-acetamide]	100 to 1000	< 100	–	–
COc1cc(-c2ccc3cnc(Nc4ccc(C5CCN(C)CC5)cc4)nn23)ccn1 [Example 676, [7-(2-Methoxy-pyridin-4-yl)-pyrrolo[2,1-f][1,2,4]triazin-2-yl]-[4-(1-methyl-piperidin-4-yl)-phenyl]-amine]	100 to 1000	< 100	–	–
CN1CCN(c2ccc(Nc3ncc4ccc(-c5ccc(S(C)(=O)=O)cc5)n4n3)cc2)CC1 [Example 59, [7-(4-Methanesulfonyl-phenyl)-pyrrolo[2,1-f][1,2,4]triazin-2-yl]-[4-(4-methyl-piperazin-1-yl)-phenyl]-amine]	–	–	100 to 1000	< 100
c1cncc(-c2ccc3cnc(Nc4ccc(N5CCC(N6CCOCC6)CC5)cc4)nn23)c1 [Example 337, [4-(4-Morpholin-4-yl-piperidin-1-yl)-phenyl]-(7-pyridin-3-yl-pyrrolo[2,1-f][1,2,4]triazin-2-yl)-amine]	–	–	100 to 1000	< 100
COc1cc([C@@]2(O)CCN(CCF)C[C@@H]2O)ccc1Nc1ncc2ccc(-c3ccccc3OC)n2n1 (racemic) [Example 833, (±)-(3S,4S)-1-(2-Fluoro-ethyl)-4-{3-methoxy-4-[7-(2-methoxy-phenyl)-pyrrolo[2,1-f][1,2,4]triazin-2-ylamino]-phenyl}-piperidine-3,4-diol]	< 100	< 100	–	–
COc1ccccc1-c1ccc2cnc(Nc3ccc4c(c3)CC(=O)N4)nn12 [Example 432, 5-[7-(2-Methoxy-phenyl)-pyrrolo[2,1-f][1,2,4]triazin-2-ylamino]-1,3-dihydro-indol-2-one]	–	–	100 to 1000	< 100
CN(c1ccccc1-c1ccc2cnc(Nc3ccc(N4CCOCC4)cc3)nn12)S(C)(=O)=O [Example 626, N-Methyl-N-{2-[2-(4-morpholin-4-yl-phenylamino)pyrrolo[2,1-f][1,2,4]triazin-7-yl]phenyl}methanesulfonamide]	100 to 1000	< 100	–	–

Other lines, results leading:

IC50 (ALK; [1]) [nM]	IC50 (JAK2; [2]) [nM]	IC50 (ALK; ALK Kinase Inhibition) [nM]	IC50 (JAK2; JAK2 Kinase Inhibition) [nM]	Compound
–	–	1000 to 10000	< 100	COc1ccc(-c2ccc3cnc(Nc4ccc(N5CCN(CC(N)=O)CC5)c(F)c4)nn23)cn1 [Example 1414, 2-(4-{2-Fluoro-4-[7-(6-methoxy-pyridin-3-yl)-pyrrolo[2,1-f][1,2,4]triazin-2-ylamino]-phenyl}-piperazin-1-yl)-acetamide]
–	–	100 to 1000	< 100	CN1CCN(c2ccc(Nc3ncc4ccc(-c5ccccc5CO)n4n3)cc2)CC1 [Example 1504, (2-{2-[4-(4-Methyl-piperazin-1-yl)-phenylamino]-pyrrolo[2,1-f][1,2,4]triazin-7-yl}-phenyl)-methanol]
–	–	1000 to 10000	< 100	CC(=O)Nc1cc(Nc2ncc3ccc(-c4cnn(C)c4)n3n2)ccc1C(C)(C)C [Example 1380, N-{2-tert-Butyl-5-[7-(1-methyl-1H-pyrazol-4-yl)-pyrrolo[2,1-f][1,2,4]triazin-2-ylamino]-phenyl}-acetamide]
–	–	< 100	100 to 1000	COc1cc(N2CCN(C)CC2)ccc1Nc1ncc2ccc(-c3ccccc3N(C)S(C)(=O)=O)n2n1 [Example 1457, N-(2-{2-[2-Methoxy-4-(4-methyl-piperazin-1-yl)-phenylamino]-pyrrolo[2,1-f][1,2,4]triazin-7-yl}-phenyl)-N-methyl-methanesulfonamide]
